Reference: patent publication US20040006328A1, “Targeting of sebaceous follicles as a treatment of sebaceous gland disorders” (priority 1999, published 2004)

Tests used:
[1] = Methylene blue staining of sebaceous glands in ex vivo tissue (topical application, frozen sections, light microscopy); type: in vitro ADME, human
Procedure: (§1) Freshly excised human skin from a face-lift procedure was provided by a plastic surgeon. The skin originated from the periauricular area and the anterior hairline of a middle-aged fair-skinned person. The samples were stored at 4 ? C. overnight. On the day of experiment, the tissue was shaved with a razor and defatted by rubbing the surface with alcohol swabs for 1 minute. After cutting the skin in smaller pieces, the tissue was placed on saline-soaked gauzes. Methylene blue, a cationic hydrophilic dye was dissolved in distilled water, alcohol, and propylene glycol at a concentration of 5% and applied on the surface of the skin in a thick layer at 31 ? C. […] 5 mm-punch biopsies were performed and the samples were processed frozen sections.
There was minimal non-specific staining of the interstitial dermis.
as §1, with “5% and was mixed in a commercially available aqueous-based lotion (50 mL of dissolved dye in 500 mg of lotion) and applied on” for “5% and applied on”
Methylene blue dye was also administered into the sebaceous glands via Retina Gel® (Ortho Pharmaceuticals) as the carrier vehicle. Typically, a sufficient amount of methylene blue (50 mL of dissolved dye in 500 mg of gel) was combined with hydroxypropyl cellulose, butylated hydroxytoluene and alcohol and applied to the epidermis.

[2] = Localization of applied dyes in in-vitro human sebaceous skin samples by frozen sectioning and light microscopy; type: in vitro ADME
Text: Fresh, in-vitro human sebaceous skin samples were used. Dye solutions and particle suspensions were applied to the samples at different concentration and in various vehicles, followed by localization of the dye by frozen sectioning and light microscopy. […] Apparently, almost any dye or suspension can be delivered to the upper infundibulum by direct solvent flow into the pore. Optimization of the concentration and solvent for MB and ICG can be determined by one skilled in the art. […] Physical means of increasing dye uptake into the infundibulum, including ultrasonication with a tissue dismembranator at low intensity, and a simple pressure-applicator intended to open the surface pores while providing a pressure gradient in favor of dye uptake is possible.

CN(C)c1ccc2nc3ccc(=[N+](C)C)cc-3sc2c1 [Methylene blue]
non-specific staining of the interstitial dermis (FIG. 9) [1]: minimal
non-specific staining of the interstitial dermis (FIG. 10) [1]: minimal
surface staining after removal of excess dye ([1]; 5% dye solution mixed in aqueous-based lotion (50 mL of dissolved dye in 500 mg of lotion), 31 C, 1 hour): lightly stained epidermis with accentuation of the staining in the follicular pores
staining in histologic sections (light microscopy, FIG. 10) ([1]; 5% dye solution mixed in aqueous-based lotion, 31 C, 1 hour, frozen sections): dense blue staining of the epidermis and of some sebaceous glands and entire hair follicles
staining in histologic sections (light microscopy, FIG. 9) ([1]; 5% in distilled water, alcohol and propylene glycol, 31 C, 1 hour, 5 mm punch biopsies, frozen sections): dense blue staining of the epidermis and of some sebaceous glands and entire hair follicles
surface staining after removal of excess dye ([1]; 5% in distilled water, alcohol and propylene glycol, thick layer at 31 C, 1 hour): lightly stained epidermis with accentuation of the staining in the follicular pores
penetration into the sebaceous glands (light microscopy) ([1]; Retina Gel as carrier vehicle (50 mL of dissolved dye in 500 mg of gel)): Penetration of the methylene blue dye into the sebaceous glands
increase of rate of uptake by iontophoresis [2]: at least one order of magnitude
entry of dye into the infundibulum ([2]; fresh in-vitro human sebaceous skin, dye solutions at different concentrations and in various vehicles): rapidly enter the infundibulum
staining of the sebaceous glands ([2]; fresh in-vitro human sebaceous skin, requiring several hours): deeply and selectively stain the sebaceous glands
